For one series, the target named is T1, rhACE2 (Homo sapiens, UniProt Q9BYF1).
T1 construct: purchased Proteintech
The experiment in a line: SPR assay with rhACE2. The class given is binding. The settings on record: rhACE2 on chip, 5% DMSO–1.05× PBS. The protocol: To screen the potential targets of the MDAs in hypertension, a CVDPlatform (www.cbligand.org/CVD) was used as previously reported ([Zhang et al., 2016a]). The results of database screening were verified by virtual docking with Discovery Studio 3.5 (BIOVIA, San Diego, CA, United States) and then validated in the SPR assay. In the SPR assay, a solution of protein standards was prepared, and the concentration of recombinant human ACE (rhACE) protein and rhACE2 (Proteintech, Rosemont, IL, United States) solution was set to 500 μg ml^−1. […] Finally, the level of binding between the proteins and each molecule was determined based on the K d value.

The target of a further series is hrACE2 (Homo sapiens, UniProt Q9BYF1). The experiment in a line: SensoLyte390 ACE2 activity assay (enzyme kinetics, cell-free). The class given is biochemical. The note with it: 37°C, 30 min, read-out: EC50 (ACE2 activity, excitatory effect). The protocol:
ACE and ACE2 activities were measured using the ACE activity assay kit and SensoLyte390 ACE2 activity assay kit (Anaspec, Fremont, CA, United States), respectively, according to the manufacturer’s instructions with some modifications. Briefly, rhACE solution dissolved in deionized water was used for analysis. ACE activity was measured in a reaction system with 50 μl of the sample and 50 μl of the ACE substrate solution with or without BAC (10^–4 to 10^–2 μM). ACE2 activity was assayed in the same manner as ACE activity. All assays were performed every 10 s for 30 min at 37°C using a Varioskan LUX fluorescence microplate reader (Thermo Fisher Scientific, Waltham, MA, United States). The autofluorescence value in each assay was subtracted from the measured values to generate the final results. The relative fluorescence unit of each sample was normalized to the corresponding total protein concentration, which was measured using a Pierce BCA protein assay kit (Thermo Fisher Scientific).

Another series concerns Ang II. The experiment in a line: serum Ang II by ELISA in SHRs after 14-day oral administration. The note with it: oral 14 days. The class given is in vivo, rat. From the text:
(§1) All three MDAs (BAC, BMC, and BHC) were purchased from Nature-Standard Co., Ltd. (Shanghai, China) and their purities were all over 98%. The anti-hypertensive effects of MDAs were studied in both acute and chronic experiments. The 16-week-old SHRs were used in animal experiments, and each group had six rats. In the acute experiment, drug administration was via i.v. injection. For i.v. injection, the animals were randomly assigned into four groups: vehicle (0.1% DMSO–0.9% salt solution, n = 6), low-dose group (0.6 mg kg^−1 body weight, n = 6), medium-dose group (2 mg kg^−1 body weight, n = 6), and high-dose group (6 mg kg^−1 body weight, n = 6). The drug was administered using a venous catheter. […] Blood pressure was recorded in real time.
(§2) Blood samples were collected from the left femoral artery of rats at the end point, followed by centrifugation at 1,000 × g for 15 min at 4°C. […] The concentrations of circulating ACE, ACE2, Ang I, Ang II, Ang (1–7), TNF-α, and IL-6 in serum were measured using the ELISA kits [ACE, cat#xy-R2401c, X-Y Biotechnology, Shanghai, China; ACE2, cat#xy-ACE2-Ra, X-Y Biotechnology; Ang I, cat#xy-E12541, X-Y Biotechnology; Ang II, cat#xy-R1430c, X-Y Biotechnology; Ang (1–7), cat#xy-Ang1-7-Ra, X-Y Biotechnology; TNF-α, cat#GM1149, Servicebio, Shanghai, China; IL-6, cat#GM1154, Servicebio] according to the manufacturer’s instructions. […]

A further series deals with Ang (1–7). In words: serum Ang (1–7) by ELISA in SHRs after 14-day oral administration. Type of series: in vivo, rat. The note with it: oral 14 days.
Source text: as §1, §2

The subject of another series is total NO. In words: total NO in serum of SHRs. The class given is in vivo, rat. The note with it: oral 14 days, dose-dependent.
Source text: as §1
Total NO levels in serum obtained from SHRs treated with vehicle, BAC, or captopril for 14 days were quantified by using total nitric oxide assay kit (Beyotime, Shanghai, China) as described previously. The absorbance was measured using a microplate reader (Thermo Fisher Scientific) at 540 nm and calculated according to the standard curve. […]

The next series has as its system p-Akt. The experiment in a line: p-Akt in aorta of SHRs (Western blot). The settings on record: vessel of SHRs, oral 14 days. The class given is in vivo, rat.
Source text: as §1, with “catheter. In chronic experiments, the animals were randomly assigned into five groups: vehicle (5% Tween 80–0.9% salt solution, n = 6), captopril group (5 mg kg^−1 body weight, n = 6), low-dose group (3 mg kg^−1 body weight, n = 6), medium-dose group (10 mg kg^−1 body weight, n = 6), and high-dose group (30 mg kg^−1 body weight, n = 6). Oral administration with drug or 5% Tween 80–0.9% salt solution was carried out once a day, and continued for 14 days.” for “catheter.”
The cell samples and tissue sample were collected and placed in ice rapidly. […] Protein concentration in cell lysates was measured using a Bio-Rad DC Protein Assay Kit […]. […]

The subject of the next series is mice. Set-up: method as in Wada et al., 2005. The settings on record: ref Wada et al., 2005; cited from earlier work.

Sequence of hrACE2 (Q9BYF1 18-805): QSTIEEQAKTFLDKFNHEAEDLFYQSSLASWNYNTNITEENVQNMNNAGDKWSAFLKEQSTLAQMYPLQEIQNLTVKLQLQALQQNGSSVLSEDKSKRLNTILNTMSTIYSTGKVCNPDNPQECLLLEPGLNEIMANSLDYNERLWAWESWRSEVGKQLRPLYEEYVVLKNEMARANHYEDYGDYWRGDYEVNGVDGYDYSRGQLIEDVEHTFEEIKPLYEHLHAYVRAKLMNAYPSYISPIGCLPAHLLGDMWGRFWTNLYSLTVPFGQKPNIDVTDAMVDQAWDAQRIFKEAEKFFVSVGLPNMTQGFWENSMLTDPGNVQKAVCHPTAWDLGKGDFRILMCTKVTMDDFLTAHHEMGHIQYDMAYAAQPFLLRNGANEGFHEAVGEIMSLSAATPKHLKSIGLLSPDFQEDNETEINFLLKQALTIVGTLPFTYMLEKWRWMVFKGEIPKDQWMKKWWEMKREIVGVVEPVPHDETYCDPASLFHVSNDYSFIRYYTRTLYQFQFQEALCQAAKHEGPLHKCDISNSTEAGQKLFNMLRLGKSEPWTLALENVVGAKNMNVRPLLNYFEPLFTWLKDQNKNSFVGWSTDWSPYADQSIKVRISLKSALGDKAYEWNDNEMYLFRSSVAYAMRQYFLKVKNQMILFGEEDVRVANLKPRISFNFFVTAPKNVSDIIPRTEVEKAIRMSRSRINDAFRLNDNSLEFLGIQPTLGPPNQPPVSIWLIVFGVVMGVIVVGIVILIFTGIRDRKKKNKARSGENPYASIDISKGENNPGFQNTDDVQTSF
T1 sequence (Q9BYF1 18-805): as above

The molecule `CCN1CC2(COC)C(O)CC(OC)C34C5CC6(O)C(OC)C(O)C(O)(C5C6OC(=O)c5ccccc5)C(C(OC)C23)C14` (stereo not shown) [BAC, Benzoylaconitine] gave a Kd on rhACE2 of 3120 nM. The EC50 at hrACE2 is 1500 nM. In addition, the “level of Ang II in blood” value in the series on Ang II is listed as “decreased”. Also, the “level of Ang (1–7) in blood” value in the series on Ang (1–7) is “significantly increased”. Also, the “total NO level in serum” value in the series on total NO is reported as “increase NO level”. Moreover, the p-Akt entry in the series on p-Akt is recorded as “activated”. For the same molecule, the “oral median lethal dose (LD50)” value in the series on mice is 1,500 mg kg^−1.

The record behind these values is article PMC8963105, “A Novel Modulator of the Renin–Angiotensin System, Benzoylaconitine, Attenuates Hypertension by Targeting ACE/ACE2 in Enhancing Vasodilation and Alleviating Vascular Inflammation” (Frontiers in Pharmacology, 2022).
